Where only a bound is given, the exact number is not on record here.

This assay addresses T1, human GPR119 (Homo sapiens, UniProt Q8TDV5).
T1 construct: expressed in transfected cells; host or cells: HEK-293 cell line stably expressing recombinant GPR119
T1 sequence (Q8TDV5 1-335): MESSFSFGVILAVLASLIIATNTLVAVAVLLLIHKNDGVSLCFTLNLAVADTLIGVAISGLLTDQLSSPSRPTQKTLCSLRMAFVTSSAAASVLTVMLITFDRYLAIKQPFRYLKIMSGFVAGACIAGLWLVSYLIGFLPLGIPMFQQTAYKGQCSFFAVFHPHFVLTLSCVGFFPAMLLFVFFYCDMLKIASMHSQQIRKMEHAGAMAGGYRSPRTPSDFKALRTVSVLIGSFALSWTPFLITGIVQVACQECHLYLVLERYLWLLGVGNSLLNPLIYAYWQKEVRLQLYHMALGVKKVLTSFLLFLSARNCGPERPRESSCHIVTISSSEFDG
As to the kind of experiment: Functional cellular assay measuring GPR119-mediated cAMP release (HTRF), HEK-293 cells stably expressing recombinant GPR119. In kind it is cell-based. Conditions: cell line expressing human GPR119; cAMP response, 30 minutes at room temperature. The procedure:
Functional Cellular Assays Measuring GPR119-Mediated cAMP Release.
Compounds of the invention, which are agonists of GPR119, were characterized by functional assays measuring the cAMP response of HEK-293 cell lines stably expressing recombinant GPR119 from man, mouse or rat, or by using a hamster cell line HIT-T15 expressing GPR119 endogenously. The cAMP content was determined using a kit based on homogenous time-resolved fluorescence (HTRF) from Cisbio Corp. (cat. no. 62AM4PEC). For preparation, cells were split into T175 culture flasks and grown to near confluency in medium (DMEM/10% FCS for HEK-293 cells, and F-12K medium/10% horse serum/2.5% FCS for HIT-T15 cells, respectively). Medium was then removed and cells washed with PBS lacking calcium and magnesium ions, followed by proteinase treatment with accutase (Sigma-Aldrich, cat. no. A6964). Detached cells were washed and resuspended in assay buffer (1×HBSS; 20 mM HEPES, 0.1% BSA, 2 mM IBMX) and cellular density determined. They were then diluted to 400000 cells/mL and 25 μL-aliquots dispensed to the wells of 96-well plates. For measurement, 25 μL of test compound in assay buffer was added and incubated for 30 minutes at room temperature. After addition of HTRF reagents diluted in lysis buffer, the plates were incubated for 1 hour, followed by measuring the fluorescence ratio at 665 vs. 620 nm. Potency of the agonists was quantified by determining the concentrations that caused 50% of the maximal response/activation (EC50). See Table 10 for exemplary data obtained using the cell line expressing human GPR119.
A general note: TR-FRET usually uses a lanthanide donor and a delayed reading to cut background.
Broadly, the EC50 is the concentration needed to bring the measured effect to its halfway point. With `O=C1CCc2c(F)cc(N3CC[C@@H](Oc4ccc(OC(CF)CF)nc4)C3=O)cc21` [Example 2-44], the EC50 was found to be 46 nM.

Take `O=C1CCc2ccc(N3CC[C@@H](Oc4ccc(Oc5ccc(F)cc5)nc4)C3=O)cc21` [Example 1-06]: the EC50 worked out at 274 nM.

Regarding `O=C1CCc2c(F)cc(N3CC[C@@H](Oc4ccc(OCC5CCC5)nc4)C3=O)cc21` [Example 2-55], the EC50 amounted to 7 nM.

Take `CCOCCCOc1ccc(O[C@@H]2CCN(c3cc(F)c4c(c3)C(=O)CC4)C2=O)cn1` [Example 2-53]: the EC50 was 21 nM.

With `CC(C)c1noc(-c2ccc(O[C@@H]3CCN(c4cc(F)c5c(c4)C(=O)CC5)C3=O)cn2)n1` [Example 3-02], the EC50 turned out to be 141 nM.

For `CN(C)C(=O)c1cc(O[C@@H]2CCN(c3cc(F)c4c(c3)C(=O)CC4)C2=O)cnc1OCC1CC1` [Example 8-03], the EC50 was above 100000 nM.

For `CCOC(=O)COc1ccc(O[C@@H]2CCN(c3cc(F)c4c(c3)C(=O)CC4)C2=O)cn1` [Example 2-43], the EC50 was found to be 62 nM.

As for `Cc1cnc(-c2ccc(O[C@@H]3CCN(c4cc(F)c5c(c4)C(=O)CC5)C3=O)cn2)s1` [Example 3-03], the EC50 turned out to be 62 nM.

In the case of `O=C1CCc2ccc(N3CC[C@@H](Oc4ccc(OCC5CC5)nc4)C3=O)cc21` [Example 1-12], the EC50 was 327 nM.

On to `CCC(Oc1ccc(O[C@@H]2CCN(c3cc(F)c4c(c3)C(=O)CC4)C2=O)cn1)C(C)C` (stereo partly shown) [Example 2-49], for which the EC50 was 94 nM.

`CSCCCOc1ccc(O[C@@H]2CCN(c3cc(F)c4c(c3)C(=O)CC4)C2=O)cn1` [Example 2-40]: the EC50 is 103 nM.

Consider `CC(CCO)CCOc1ccc(O[C@@H]2CCN(c3cc(F)c4c(c3)C(=O)CC4)C2=O)cn1` (stereo partly shown) [Example 2-50], for which the EC50 is 1050 nM.

For `CCCCN(C)C(=O)c1ccc(O[C@@H]2CCN(c3cc(F)c4c(c3)C(=O)CC4)C2=O)cn1` [Example 3-06], the EC50 was determined as 978 nM.

As for `CSc1ccc(O[C@@H]2CCN(c3cc(F)c4c(c3)C(=O)CC4)C2=O)cn1` [Example 1-13], the EC50 amounted to 368 nM.

`Cc1cc(O[C@@H]2CCN(c3cc(F)c4c(c3)C(=O)CC4)C2=O)cnc1OCC1CC1` [Example 3-10]: the EC50 turned out to be 18 nM.

Consider `O=C1CCc2c(F)cc(N3CC[C@@H](Oc4ccc(Oc5ccc(F)cc5)cc4)C3=O)cc21` [Example 1-03], for which the EC50 was 33 nM.

Regarding `O=C1CCc2c(F)cc(N3CC[C@@H](Oc4ccc(OCC5CCCOC5)nc4)C3=O)cc21` (stereo partly shown) [Example 2-73], the EC50 was 159 nM.

For `O=C1CCc2c(F)cc(N3CC[C@@H](Oc4ccc(OCCN5CCCC5)nc4)C3=O)cc21` [Example 2-67], the EC50 was 15000 nM.

For the compound `CN1CCC[C@H]1COc1ccc(O[C@@H]2CCN(c3cc(F)c4c(c3)C(=O)CC4)C2=O)cn1` [Example 2-59], the EC50 stood at 2220 nM.

In the case of `O=C1CC[C@H](COc2ccc(O[C@@H]3CCN(c4cc(F)c5c(c4)C(=O)CC5)C3=O)cn2)N1` [Example 2-29], the EC50 came out at 11600 nM.

Turning to `CC(C)Sc1ccc(O[C@@H]2CCN(c3cc(F)c4c(c3)C(=O)CC4)C2=O)cn1` [Example 1-14], the EC50 came to 33 nM.

Take `O=C1CCc2ccc(N3CCC(Oc4ccc(Oc5ccc(F)cc5)cc4)C3=O)cc21` (stereo not shown) [Example 1-02]: the EC50 is 895 nM.

`O=C1CCc2c(F)cc(N3CC[C@@H](Oc4ccc(OC5CCOC5)nc4)C3=O)cc21` (stereo partly shown) [Example 2-03]: the EC50 turned out to be 63 nM.

As to `CCC(C)CCOc1ccc(O[C@@H]2CCN(c3cc(F)c4c(c3)C(=O)CC4)C2=O)cn1` (stereo partly shown) [Example 2-34], the EC50 was determined as 23 nM.

Turning to `O=C1CCc2c(F)cc(N3CC[C@@H](Oc4ccc(OC5CCCOC5)nc4)C3=O)cc21` (stereo partly shown) [Example 2-78], the EC50 turned out to be 33 nM.

`CC(=O)c1ccc(O[C@@H]2CCN(c3cc(F)c4c(c3)C(=O)CC4)C2=O)cn1` [Example 3-15]: the EC50 stood at 29000 nM.

`CCCOc1ccc(O[C@@H]2CCN(c3cc(F)c4c(c3)C(=O)CC4)C2=O)cn1` [Example 2-18]: the EC50 is 5 nM.

Consider `CCSc1ccc(O[C@@H]2CCN(c3cc(F)c4c(c3)C(=O)CC4)C2=O)cn1` [Example 1-15], for which the EC50 amounted to 70 nM.

Turning to `O=C1CCc2c(F)cc(N3CC[C@@H](Oc4ccc(OCC5CCCC5)nc4)C3=O)cc21` [Example 2-57], the EC50 worked out at 9 nM.

For `O=C1CCc2c(F)cc(N3CC[C@@H](Oc4ccc(OCC5CCCO5)nc4)C3=O)cc21` (stereo partly shown) [Example 2-25], the EC50 stood at 13000 nM.

For the compound `CCC(C)COc1ccc(O[C@@H]2CCN(c3cc(F)c4c(c3)C(=O)CC4)C2=O)cn1` (stereo partly shown) [Example 2-10], the EC50 amounted to 5 nM.

Take `O=C1CCc2c(F)cc(N3CC[C@@H](Oc4ccc(O[C@H]5CCOC5)nc4)C3=O)cc21` [Example 2-68]: the EC50 came out at 90 nM.

`O=C1CCc2c(F)cc(N3CC[C@@H](Oc4ccc(OCCF)nc4)C3=O)cc21` [Example 2-48]: the EC50 came to 64 nM.

For `CCOc1ncc(O[C@@H]2CCN(c3cc(F)c4c(c3)C(=O)CC4)C2=O)cc1F` [Example 3-18], the EC50 was 45 nM.

Take `O=C1CCc2c(F)cc(N3CC[C@@H](Oc4ccc(SCC5CC5)nc4)C3=O)cc21` [Example 3-17]: the EC50 stood at 11 nM.

Turning to `CCCc1cc(O[C@@H]2CCN(c3cc(F)c4c(c3)C(=O)CC4)C2=O)cnc1OCC1CC1` [Example 8-04], the EC50 amounted to 109 nM.

Regarding `CCC(COC)Oc1ccc(O[C@@H]2CCN(c3cc(F)c4c(c3)C(=O)CC4)C2=O)cn1` (stereo partly shown) [Example 2-47], the EC50 came out at 138 nM.

As to `COC(=O)c1cc(O[C@@H]2CCN(c3cc(F)c4c(c3)C(=O)CC4)C2=O)cnc1OCC1CC1` [Example 8-01], the EC50 amounted to 64 nM.

Take `CC1(COc2ccc(O[C@@H]3CCN(c4cc(F)c5c(c4)C(=O)CC5)C3=O)cn2)CC1` [Example 2-60]: the EC50 was determined as 11 nM.

For the compound `O=C1CCc2c(F)cc(N3CC[C@@H](Oc4ccnc(OCC5CC5)c4)C3=O)cc21` [Example 5-03], the EC50 stood at 40 nM.

As to `CC(C)C(C)Oc1ccc(O[C@@H]2CCN(c3cc(F)c4c(c3)C(=O)CC4)C2=O)cn1` (stereo partly shown) [Example 2-46], the EC50 is 37 nM.

In the case of `O=C1CCc2c(F)cc(N3CC[C@@H](Oc4ccnc(OC5CCC5)c4)C3=O)cc21` [Example 5-10], the concentration for a half-maximal effect (EC50) is 28 nM.

For `Cn1ccnc1COc1ccc(O[C@@H]2CCN(c3cc(F)c4c(c3)C(=O)CC4)C2=O)cn1` [Example 2-37], the concentration giving a half-maximal response (EC50) worked out at 24300 nM.

As to `O=C1CCc2c(F)cc(N3CC[C@@H](Oc4ccc(OCCCCO)nc4)C3=O)cc21` [Example 2-16], the EC50 was found to be 832 nM.

For the compound `O=C1CCc2c(F)cc(N3CC[C@@H](Oc4ccc(OCc5cnccn5)nc4)C3=O)cc21` [Example 2-52], the EC50 was determined as 1190 nM.

Take `CCC(C)Oc1ccc(O[C@@H]2CCN(c3cc(F)c4c(c3)C(=O)CC4)C2=O)cn1` (stereo partly shown) [Example 2-14]: the EC50 is 12 nM.

`O=C1CCc2c(Br)cc(N3CC[C@@H](Oc4ccc(OCC5CC5)nc4)C3=O)cc21` [Example 1-18]: the EC50 came to 287 nM.

On to `O=C1CCc2c(F)cc(N3CC[C@@H](Oc4ccnc(OCCC5CC5)c4)C3=O)cc21` [Example 5-01], for which the EC50 came to 22 nM.

In the case of `COCC(C)Oc1ccc(O[C@@H]2CCN(c3cc(F)c4c(c3)C(=O)CC4)C2=O)cn1` (stereo partly shown) [Example 2-05], the EC50 was found to be 77 nM.

On to `Cn1cc(COc2ccc(O[C@@H]3CCN(c4cc(F)c5c(c4)C(=O)CC5)C3=O)cn2)cn1` [Example 2-71], for which the EC50 is 2500 nM.

With `O=C1CC[C@H](COc2ccc(O[C@@H]3CCN(c4cc(F)c5c(c4)C(=O)CC5)C3=O)cn2)O1` [Example 2-38], the EC50 was 947 nM.

Consider `O=C1CCc2c(F)cc(N3CC[C@@H](Oc4ccc(OC5CCCC5)nc4)C3=O)cc21` [Example 2-63], for which the EC50 stood at 5 nM.

On to `O=C1CCc2c(F)cc(N3CC[C@@H](Oc4ccc(C(=O)N5CCCC5)nc4)C3=O)cc21` [Example 3-05], for which the EC50 came out at 3180 nM.

Take `CC1CC1COc1ccc(O[C@@H]2CCN(c3cc(F)c4c(c3)C(=O)CC4)C2=O)cn1` (stereo partly shown) [Example 2-26]: the EC50 was 11 nM.

Consider `O=C1CCc2c(F)cc(N3CC[C@@H](Oc4cnc(OCC5CC5)c(F)c4)C3=O)cc21` [Example 3-09], for which the EC50 was determined as 12 nM.

`O=C1CCc2c(F)cc(N3CC[C@@H](Oc4ccc(OCC5CCOC5)nc4)C3=O)cc21` (stereo partly shown) [Example 2-75]: the EC50 turned out to be 95 nM.

Consider `Cc1c(N2CC[C@@H](Oc3ccc(OCC4CC4)nc3)C2=O)cc(F)c2c1C(=O)CC2` [Example 1-19], for which the EC50 turned out to be 692 nM.

As for `CC(C)CCOc1ccc(OC2CCN(c3ccc4c(c3)C(=O)CC4)C2=O)cc1` (stereo not shown) [Example 1-01], the EC50 was 385 nM.

Source of the values: patent publication US8853412B2, “Pyrrolidinone derivatives as GPR119 modulators for the treatment of diabetes, obesity, dyslipidemia and related disorders” (Sanofi, priority 2012, dated 2014).
